Measurements taken from PubChem BioAssay (NCI).
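In this assay, cells in 96-well plates receive the compound at five concentrations for 48 hours. Endpoints are linearly interpolated between the surrounding concentrations. GI50 marks 50% less growth. Definition used: TGI = concentration required for complete inhibition of growth.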

Legend:
Experiment in all cases: NCI anticancer screen, dose series, 48 h
[1] = system: 786-0 renal
[2] = system: A498 renal
[3] = system: A549 NSCLC
[4] = system: ACHN renal
[5] = system: BT-549 breast
[6] = system: CAKI-1 renal
[7] = system: CCRF-CEM leukemia
[8] = system: COLO 205 colon
[9] = system: DU-145 prostate
[10] = system: EKVX NSCLC
[11] = system: HCC-2998 colon
[12] = system: HCT-116 colon
[13] = system: HCT-15 colon
[14] = system: HL-60(TB) leukemia
[15] = system: HOP-62 NSCLC
[16] = system: HOP-92 NSCLC
[17] = system: HS 578T breast
[18] = system: HT29 colon
[19] = system: IGROV1 ovarian
[20] = system: K-562 leukemia
[21] = system: KM12 colon
[22] = system: LOX IMVI melanoma
[23] = system: M14 melanoma
[24] = system: MALME-3M melanoma
[25] = system: MCF7 breast
[26] = system: MDA-MB-435
[27] = system: MOLT-4 leukemia
[28] = system: NCI-H226 lung
[29] = system: NCI-H460 lung
[30] = system: NCI-H522 lung
[31] = system: NCI/ADR-RES ovarian
[32] = system: OVCAR-4 ovarian
[33] = system: OVCAR-5 ovarian
[34] = system: OVCAR-8 ovarian
[35] = system: PC-3 prostate
[36] = system: RPMI-8226 leukemia
[37] = system: RXF 393 renal
[38] = system: SF-268 CNS
[39] = system: SF-295 CNS
[40] = system: SF-539 CNS
[41] = system: SK-MEL-2 melanoma
[42] = system: SK-MEL-28 melanoma
[43] = system: SK-MEL-5 melanoma
[44] = system: SK-OV-3 ovarian
[45] = system: SN12C renal
[46] = system: SNB-19 CNS
[47] = system: SNB-75 CNS
[48] = system: SW-620 colon
[49] = system: TK-10 renal
[50] = system: U251 CNS
[51] = system: UACC-257 melanoma
[52] = system: UACC-62 melanoma
[53] = system: UO-31 renal
[54] = system: OVCAR-3 ovarian
[55] = system: SR leukemia

Q: Which results are given for `Cc1cccc(N2CCN(C3=C(Cl)C(=O)c4ncccc4C3=O)CC2)c1`?
A: GI50 [1]: 2.33 µM; TGI [1]: 5.36 µM; GI50 [2]: 13.1 µM; TGI [2]: 26.5 µM; GI50 [3]: 15.7 µM; TGI [3]: 36 µM; GI50 [4]: 1.72 µM; TGI [4]: 3.51 µM; GI50 [5]: 3.61 µM; TGI [5]: 9.58 µM; GI50 [6]: 2.86 µM; TGI [6]: 11.6 µM; GI50 [7]: 2.03 µM; TGI [7]: 5.79 µM; GI50 [8]: 1.94 µM; TGI [8]: 3.79 µM; GI50 [9]: 6.86 µM; TGI [9]: 26.3 µM; GI50 [10]: 1.78 µM; TGI [10]: 3.34 µM; GI50 [11]: 8.53 µM; TGI [11]: 22.1 µM; GI50 [12]: 1.67 µM; TGI [12]: 3.07 µM; GI50 [13]: 1.71 µM; TGI [13]: 4.05 µM; GI50 [14]: 1.27 µM; TGI [14]: 3.82 µM; GI50 [15]: 17 µM; TGI [15]: 31 µM; GI50 [16]: 1.48 µM; TGI [16]: 2.86 µM; GI50 [17]: 5.74 µM; TGI [17]: 38.5 µM; GI50 [18]: 6.09 µM; TGI [18]: 21 µM; GI50 [19]: 2.53 µM; TGI [19]: 6.58 µM; GI50 [20]: 1.8 µM; TGI [20]: 5.31 µM; GI50 [21]: 19 µM; TGI [21]: 36.4 µM; GI50 [22]: 1.57 µM; TGI [22]: 3.02 µM; GI50 [23]: 2.69 µM; TGI [23]: 9.36 µM; GI50 [24]: 1.83 µM; TGI [24]: 3.77 µM; GI50 [25]: 1.63 µM; TGI [25]: 3.75 µM; GI50 [26]: 1.81 µM; TGI [26]: 3.35 µM; GI50 [27]: 2.01 µM; TGI [27]: 5.45 µM; GI50 [28]: 12.9 µM; TGI [28]: 33.3 µM; GI50 [29]: 5.49 µM; TGI [29]: 21.3 µM; GI50 [30]: 1.74 µM; TGI [30]: 3.42 µM; GI50 [31]: 2.44 µM; TGI [31]: 7.45 µM; GI50 [32]: 1.74 µM; TGI [32]: 3.26 µM; GI50 [33]: 15 µM; TGI [33]: 31.5 µM; GI50 [34]: 2.66 µM; TGI [34]: 9.3 µM; GI50 [35]: 4.48 µM; TGI [35]: 17.5 µM; GI50 [36]: 2.08 µM; TGI [36]: 5.47 µM; GI50 [37]: 1.72 µM; TGI [37]: 3.15 µM; GI50 [38]: 14.4 µM; TGI [38]: 32.2 µM; GI50 [39]: 12.1 µM; TGI [39]: 25.5 µM; GI50 [40]: 3.91 µM; TGI [40]: 15.6 µM; GI50 [41]: 6.33 µM; TGI [41]: 19.2 µM; GI50 [42]: 2.6 µM; TGI [42]: 6.61 µM; GI50 [43]: 9.63 µM; TGI [43]: 21.5 µM; GI50 [44]: 12.8 µM; TGI [44]: 42.9 µM; GI50 [45]: 4.28 µM; TGI [45]: 21.9 µM; GI50 [46]: 14.4 µM; TGI [46]: 29.5 µM; GI50 [47]: 10.9 µM; TGI [47]: 27.9 µM; GI50 [48]: 1.42 µM; TGI [48]: 3 µM; GI50 [49]: 3.96 µM; TGI [49]: 8.89 µM; GI50 [50]: 6.96 µM; TGI [50]: 21.1 µM; GI50 [51]: 2.05 µM; TGI [51]: 4.97 µM; GI50 [52]: 3.49 µM; TGI [52]: 13 µM; GI50 [53]: 1.48 µM; TGI [53]: 2.81 µM

Q: How did the GI50 [2] turn out when `CC(C)=CCC[C@](C)(O)[C@H]1CC[C@]2(C)[C@@H]1CC[C@@H]1[C@@]3(C)CC[C@H](N)C(C)(C)[C@@H]3CC[C@]12C` was run?
A: The GI50 was 1.88 µM.

Q: What about the TGI [2] of the same compound?
A: Its TGI is 3.55 µM.

Q: And the GI50 [3]?
A: Its GI50 is 1.87 µM.

Q: What about the TGI [3] of the same compound?
A: Its TGI is 3.77 µM.

Q: And the GI50 [4]?
A: Its GI50 is 1.78 µM.

Q: And the TGI [4]?
A: The TGI was 3.16 µM.

Q: And the GI50 [5]?
A: Its GI50 is 14.3 µM.

Q: What about the TGI [5] of the same compound?
A: The TGI was 55.8 µM.

Q: What about the GI50 [6] of the same compound?
A: Its GI50 is 1.85 µM.

Q: What about the TGI [6] of the same compound?
A: Its TGI is 3.38 µM.

Q: What about the GI50 [7] of the same compound?
A: Its GI50 is 3.02 µM.

Q: And the TGI [7]?
A: Its TGI is > 100 µM.

Q: And the GI50 [8]?
A: Its GI50 is 1.9 µM.

Q: And the TGI [8]?
A: Its TGI is 3.68 µM.

Q: And the GI50 [9]?
A: Its GI50 is 1.92 µM.

Q: What about the TGI [9] of the same compound?
A: The TGI was 3.63 µM.

Q: And the GI50 [14]?
A: Its GI50 is 1.87 µM.

Q: What about the TGI [14] of the same compound?
A: Its TGI is 3.9 µM.

Q: And the GI50 [16]?
A: Its GI50 is 1.76 µM.

Q: And the TGI [16]?
A: The TGI was 5.46 µM.

Q: And the GI50 [17]?
A: Its GI50 is 2.21 µM.

Q: What about the TGI [17] of the same compound?
A: The TGI was 5.01 µM.

Q: And the GI50 [20]?
A: The GI50 was 1.97 µM.

Q: And the TGI [20]?
A: Its TGI is 5.71 µM.

Q: And the GI50 [26]?
A: Its GI50 is 1.87 µM.

Q: What about the TGI [26] of the same compound?
A: The TGI was 3.52 µM.

Q: And the GI50 [27]?
A: The GI50 was 2.1 µM.

Q: What about the TGI [27] of the same compound?
A: Its TGI is 4.98 µM.

Q: And the GI50 [30]?
A: The GI50 was 1.97 µM.

Q: What about the TGI [30] of the same compound?
A: The TGI was 4.28 µM.

Q: And the GI50 [54]?
A: Its GI50 is 1.77 µM.

Q: What about the TGI [54] of the same compound?
A: Its TGI is 3.27 µM.

Q: What about the GI50 [32] of the same compound?
A: Its GI50 is 2.19 µM.

Q: And the TGI [32]?
A: Its TGI is 5.74 µM.

Q: And the GI50 [33]?
A: Its GI50 is 1.64 µM.

Q: And the TGI [33]?
A: The TGI was 3.09 µM.

Q: And the GI50 [34]?
A: The GI50 was 2.18 µM.

Q: What about the TGI [34] of the same compound?
A: The TGI was 4.96 µM.

Q: And the GI50 [35]?
A: The GI50 was 1.98 µM.

Q: What about the TGI [35] of the same compound?
A: Its TGI is 4.23 µM.

Q: And the GI50 [37]?
A: Its GI50 is 1.49 µM.

Q: And the TGI [37]?
A: Its TGI is 2.85 µM.

Q: And the GI50 [38]?
A: The GI50 was 4.19 µM.

Q: What about the TGI [38] of the same compound?
A: Its TGI is 21.8 µM.

Q: What about the GI50 [39] of the same compound?
A: The GI50 was 1.81 µM.

Q: And the TGI [39]?
A: Its TGI is 3.39 µM.

Q: What about the GI50 [41] of the same compound?
A: Its GI50 is 2.02 µM.

Q: And the TGI [41]?
A: Its TGI is 4.05 µM.

Q: What about the GI50 [42] of the same compound?
A: Its GI50 is 1.8 µM.

Q: What about the TGI [42] of the same compound?
A: The TGI was 3.35 µM.

Q: And the GI50 [44]?
A: The GI50 was 3.23 µM.

Q: What about the TGI [44] of the same compound?
A: The TGI was 10.9 µM.

Q: What about the GI50 [47] of the same compound?
A: The GI50 was 10.5 µM.

Q: And the TGI [47]?
A: Its TGI is 26.4 µM.

Q: What about the GI50 [55] of the same compound?
A: Its GI50 is 1.17 µM.

Q: And the TGI [55]?
A: The TGI was 3.58 µM.

Q: And the GI50 [49]?
A: The GI50 was 6.01 µM.

Q: What about the TGI [49] of the same compound?
A: Its TGI is 21.1 µM.

Q: And the GI50 [51]?
A: Its GI50 is 2.06 µM.

Q: And the TGI [51]?
A: The TGI was 4.47 µM.

Q: What about the GI50 [52] of the same compound?
A: The GI50 was 1.66 µM.

Q: What about the TGI [52] of the same compound?
A: The TGI was 3.21 µM.

Q: What about the GI50 [53] of the same compound?
A: The GI50 was 1.54 µM.

Q: And the TGI [53]?
A: Its TGI is 2.9 µM.
